# Article PMC11045757, “Group 3 medulloblastoma transcriptional networks collapse under domain specific EP300/CBP inhibition” (Nature Communications, 2024)
# System: 460 barcoded cancer cell lines
# Experiment: PRISM pooled barcoded cancer cell line growth screen, 10-point dose-response, 5 days, AUC
# Type: cell-based
# Parameters: scale not given here
# From the text: Several small molecule inhibitors of distinct protein domains of EP300/CBP are available, though the majority target the histone acetyltransferase domain (HAT) or bromodomain (BRD)[5],[10],[21],[22]. […] We used these tools to investigate the relative contribution of the EP300/CBP BRD or HAT domain to tumor cell growth (Fig. 1a). To do so, we performed 10-point, dose-response growth assays using mixed pools of 460 barcoded cancer cell lines, over five days of treatment in vitro[33],[34]. Growth was measured using an area-under-the-curve (AUC) approach (Supplementary Table 1, Supplementary Fig. 1a). […] Given potential differences in compound penetration and solubility, and to compare the relative cell line and tumor-specific effects of these two compounds in assays performed non-simultaneously, we performed a median normalization of each dataset (Supplementary Table 2).
compound,measurement,setting,value
CO[C@H]1CC[C@H](n2c([C@@H]3CCCC(=O)N3c3ccc(F)c(F)c3)nc3cc(-c4c(C)noc4C)ccc32)CC1 [CCS1477],AUC,"22RV1, Prostate Cancer",0.7824
same,AUC,"42MGBA, Glioma",0.959
same,AUC,"143B, Osteosarcoma",0.7756
same,AUC,"639V, Bladder Cancer",1
same,AUC,"647V, Bladder Cancer",0.9387
same,AUC,"697, B-cell Leukemia",0.8421
same,AUC,"769P, Kidney Cancer",0.866
same,AUC,"5637, Bladder Cancer",0.9709
same,AUC,"8305C, Thyroid Cancer",0.9842
same,AUC,"A101D, Melanoma",0.9949
same,AUC,"A204, Rhabdoid",0.6935
same,AUC,"A253, Head and Neck Cancer",0.8895
same,AUC,"A375, Melanoma",0.896
same,AUC,"A427, Lung Cancer",0.8534
same,AUC,"A673, Ewing Sarcoma",0.974
same,AUC,"A1207, Glioblastoma",1
same,AUC,"ACHN, Kidney Cancer",0.9303
same,AUC,"AM38, Glioblastoma",0.9422
same,AUC,"AN3CA, Endometrial/Uterine Cancer",0.9421
same,AUC,"AU565, Breast Cancer",0.9734
same,AUC,"BDCM, AML",0.9113
same,AUC,"BEN, Lung Cancer",0.7123
same,AUC,"BFTC905, Bladder Cancer",0.9629
same,AUC,"BHT101, Thyroid Cancer",0.7216
same,AUC,"BICR16, Head and Neck Cancer",0.7276
same,AUC,"BICR18, Head and Neck Cancer",0.7534
same,AUC,"BICR22, Head and Neck Cancer",0.8618
same,AUC,"BICR31, Head and Neck Cancer",0.8654
same,AUC,"BICR56, Head and Neck Cancer",0.8942
same,AUC,"BT16, Rhabdoid",0.8481
same,AUC,"BT474, Breast Cancer",0.9512
same,AUC,"C32, Melanoma",0.5879
same,AUC,"C8166, Lymphoma",0.8246
same,AUC,"CADOES1, Ewing Sarcoma",0.8986
same,AUC,"CAKI1, Kidney Cancer",0.9906
same,AUC,"CAL27, Head and Neck Cancer",0.9982
same,AUC,"CAL54, Kidney Cancer",0.8391
same,AUC,"CAL62, Thyroid Cancer",0.9564
same,AUC,"CAL78, Chondrosarcoma",0.8691
same,AUC,"CAL120, Breast Cancer",0.9482
same,AUC,"CAOV3, Ovarian Cancer",0.8478
same,AUC,"CBAGPN, Ewing Sarcoma",0.8224
same,AUC,"CCK81, Colon/Colorectal Cancer",0.8227
same,AUC,"CHL1, Melanoma",0.6111
same,AUC,"CHLA06ATRT, Rhabdoid",1
same,AUC,"CHLA10, Ewing Sarcoma",0.9814
same,AUC,"CHLA15, Neuroblastoma",0.7397
same,AUC,"CHLA57, Ewing Sarcoma",0.9985
same,AUC,"CHP212, Neuroblastoma",0.8537
same,AUC,"CI1, B-cell Lymphoma",0.9278
same,AUC,"CJM, Melanoma",0.8842
same,AUC,"CL11, Colon/Colorectal Cancer",0.761
same,AUC,"CL34, Colon/Colorectal Cancer",0.9427
same,AUC,"CMLT1, CML",0.8343
same,AUC,"COGAR359, Rhabdoid",1
same,AUC,"COGE352, Ewing Sarcoma",0.998
same,AUC,"COLO320, Colon/Colorectal Cancer",0.8831
same,AUC,"COLO678, Colon/Colorectal Cancer",0.8848
same,AUC,"COLO783, Melanoma",0.9736
same,AUC,"COLO792, Melanoma",0.8076
same,AUC,"CORL23, Lung Cancer",0.9125
same,AUC,"CORL105, Lung Cancer",0.8782
same,AUC,"COV318, Ovarian Cancer",0.899
same,AUC,"COV434, Ovarian Cancer",0.9687
same,AUC,"CW2, Colon/Colorectal Cancer",0.9939
same,AUC,"CW9019, Rhabdomyosarcoma",0.9021
same,AUC,"DAOY, Medulloblastoma",0.8871
same,AUC,"DEL, Lymphoma",1
same,AUC,"DETROIT562, Head and Neck Cancer",0.9177
same,AUC,"DKMG, Glioblastoma",1
same,AUC,"DL, Rhabdoid",0.7415
same,AUC,"DMS53, Lung Cancer",0.712
same,AUC,"DMS273, Lung Cancer",1
same,AUC,"DND41, T-acute leukemia",0.9395
same,AUC,"DU145, Prostate Cancer",0.9501
same,AUC,"DU4475, Breast Cancer",0.7484
same,AUC,"DV90, Lung Cancer",0.9154
same,AUC,"EB1, Lymphoma",0.7489
same,AUC,"EBC1, Lung Cancer",0.7317
same,AUC,"ECC10, Gastric Cancer",0.9776
same,AUC,"ECGI10, Esophageal Cancer",0.9953
same,AUC,"EFE184, Endometrial/Uterine Cancer",0.7698
same,AUC,"EFM19, Breast Cancer",0.7512
same,AUC,"EFO21, Ovarian Cancer",0.9901
same,AUC,"EM2, CML",0.9432
same,AUC,"EN, Endometrial/Uterine Cancer",1
same,AUC,"ES2, Ovarian Cancer",0.9355
same,AUC,"ESS1, Endometrial/Uterine Cancer",0.9966
same,AUC,"EW8, Ewing Sarcoma",1
same,AUC,"EWS502, Ewing Sarcoma",0.7102
same,AUC,"FADU, Head and Neck Cancer",0.8918
same,AUC,"FTC133, Thyroid Cancer",0.9601
same,AUC,"FTC238, Thyroid Cancer",0.9961
same,AUC,"G292CLONEA141B1, Osteosarcoma",1
same,AUC,"G361, Melanoma",0.6349
same,AUC,"G401, Rhabdoid",0.8875
same,AUC,"G402, Rhabdoid",0.8394
same,AUC,"GB1, Glioblastoma",0.7767
same,AUC,"GCT, Pleomorphic Sarcoma",0.9612
same,AUC,"GI1, Glioblastoma",0.7855
same,AUC,"GOS3, Glioblastoma",0.984
same,AUC,"GP2D, Colon/Colorectal Cancer",0.7748
same,AUC,"GRANTA519, Lymphoma",0.9571
same,AUC,"GSS, Gastric Cancer",0.646
same,AUC,"HARA, Lung Cancer",0.9612
same,AUC,"HCC33, Lung Cancer",0.9669
same,AUC,"HCC38, Breast Cancer",0.8868
same,AUC,"HCC44, Lung Cancer",0.9456
same,AUC,"HCC56, Colon/Colorectal Cancer",0.9605
same,AUC,"HCC78, Lung Cancer",0.8972
same,AUC,"HCC95, Lung Cancer",0.9968
same,AUC,"HCC515, Lung Cancer",0.7803
same,AUC,"HCC1419, Breast Cancer",0.8162
same,AUC,"HCC1428, Breast Cancer",0.8123
same,AUC,"HCC1438, Lung Cancer",0.9027
same,AUC,"HCC1806, Breast Cancer",0.9831
same,AUC,"HCC1937, Breast Cancer",1
same,AUC,"HCC2108, Lung Cancer",0.7949
same,AUC,"HCC4006, Lung Cancer",0.9703
same,AUC,"HCT116, Colon/Colorectal Cancer",0.9792
same,AUC,"HDMYZ, Lymphoma",0.8423
same,AUC,"HDQP1, Breast Cancer",0.939
same,AUC,"HEC1B, Endometrial/Uterine Cancer",0.8393
same,AUC,"HEC6, Endometrial/Uterine Cancer",0.9929
same,AUC,"HEC50B, Endometrial/Uterine Cancer",0.7901
same,AUC,"HEL9217, AML",0.6249
same,AUC,"HEL, AML",0.5914
same,AUC,"HEP3B217, Liver Cancer",0.9151
same,AUC,"HEPG2, Liver Cancer",0.7882
same,AUC,"HEYA8, Ovarian Cancer",0.9726
same,AUC,"HGC27, Gastric Cancer",0.9831
same,AUC,"HH, Lymphoma",0.8948
same,AUC,"HOS, Osteosarcoma",0.9628
same,AUC,"HPBALL, T-acute leukemia",0.9516
same,AUC,"HS294T, Melanoma",0.9659
same,AUC,"HS766T, Pancreatic Cancer",0.9722
same,AUC,"HSC2, Head and Neck Cancer",0.9695
same,AUC,"HSC3, Head and Neck Cancer",0.9769
same,AUC,"HT29, Colon/Colorectal Cancer",0.658
same,AUC,"HT115, Colon/Colorectal Cancer",0.9413
same,AUC,"HT144, Melanoma",1
same,AUC,"HT1197, Bladder Cancer",0.9485
same,AUC,"HT, B-cell Lymphoma",0.7078
same,AUC,"HUCCT1, Bile Duct Cancer",0.9905
same,AUC,"HUG1N, Gastric Cancer",0.95
same,AUC,"HUH1, Liver Cancer",0.8468
same,AUC,"HUH7, Liver Cancer",1
same,AUC,"HUH28, Bile Duct Cancer",0.9991
same,AUC,"HUPT3, Pancreatic Cancer",0.8687
same,AUC,"HUPT4, Pancreatic Cancer",0.7771
same,AUC,"HUT78, Lymphoma",0.9925
same,AUC,"IALM, Lung Cancer",0.7856
same,AUC,"IGR37, Melanoma",1
same,AUC,"IGROV1, Ovarian Cancer",0.9601
same,AUC,"IM95, Gastric Cancer",0.8194
same,AUC,"IPC298, Melanoma",0.9388
same,AUC,"ISHIKAWAHERAKLIO02ER, Endometrial/Uterine Cancer",0.9971
same,AUC,"ISTMES1, Lung Cancer",0.9282
same,AUC,"J82, Bladder Cancer",1
same,AUC,"JEKO1, Lymphoma",0.9796
same,AUC,"JHH1, Liver Cancer",0.7664
same,AUC,"JHH4, Liver Cancer",0.9641
same,AUC,"JHH5, Liver Cancer",0.6818
same,AUC,"JHH7, Liver Cancer",0.9818
same,AUC,"JHOC5, Ovarian Cancer",1
same,AUC,"JHUEM7, Endometrial/Uterine Cancer",0.8239
same,AUC,"JVM3, B-cell Leukemia",0.9481
same,AUC,"K029AX, Melanoma",0.7327
same,AUC,"KALS1, Glioblastoma",0.99
same,AUC,"KARPAS620, Myeloma",0.9486
same,AUC,"KATOIII, Gastric Cancer",0.9783
same,AUC,"KCL22, CML",0.7293
same,AUC,"KD, Rhabdoid",0.7052
same,AUC,"KE37, T-acute leukemia",0.8049
same,AUC,"KE39, Gastric Cancer",1
same,AUC,"KELLY, Neuroblastoma",0.8609
same,AUC,"KMBC2, Bladder Cancer",0.8012
same,AUC,"KMS11, Myeloma",0.8305
same,AUC,"KMS12BM, Myeloma",0.8083
same,AUC,"KMS18, Myeloma",0.8881
same,AUC,"KMS21BM, Myeloma",0.9427
same,AUC,"KMS28BM, Myeloma",0.7058
same,AUC,"KMS34, Myeloma",0.8725
same,AUC,"KNS42, Glioblastoma",0.9251
same,AUC,"KNS60, Glioblastoma",0.8942
same,AUC,"KNS62, Lung Cancer",0.9516
same,AUC,"KP3, Pancreatic Cancer",1
same,AUC,"KPNYN, Neuroblastoma",0.9626
same,AUC,"KS1, Glioma",0.7921
same,AUC,"KU1919, Bladder Cancer",0.7361
same,AUC,"KYM1, Rhabdoid",0.9475
same,AUC,"KYSE30, Esophageal Cancer",0.989
same,AUC,"KYSE150, Esophageal Cancer",0.988
same,AUC,"KYSE410, Esophageal Cancer",0.9549
same,AUC,"KYSE510, Esophageal Cancer",0.928
same,AUC,"KYSE520, Esophageal Cancer",0.9953
same,AUC,"LAMA84, CML",0.8874
same,AUC,"LC1SQSF, Lung Cancer",0.9937
same,AUC,"LCLC103H, Lung Cancer",0.945
same,AUC,"LI7, Liver Cancer",0.8469
same,AUC,"LK2, Lung Cancer",0.7132
same,AUC,"LMSU, Gastric Cancer",0.9918
same,AUC,"LN18, Glioblastoma",0.9905
same,AUC,"LNCAPCLONEFGC, Prostate Cancer",0.7183
same,AUC,"LOUNH91, Lung Cancer",1
same,AUC,"LOVO, Colon/Colorectal Cancer",0.6312
same,AUC,"LOXIMVI, Melanoma",0.8683
same,AUC,"LS180, Colon/Colorectal Cancer",0.9873
same,AUC,"LS411N, Colon/Colorectal Cancer",0.9732
same,AUC,"LUDLU1, Lung Cancer",0.9677
same,AUC,"LXF289, Lung Cancer",0.9728
same,AUC,"M059K, Glioblastoma",0.8113
same,AUC,"MALME3M, Melanoma",0.7988
same,AUC,"MC116, B-cell Lymphoma",0.9377
same,AUC,"MCAS, Ovarian Cancer",0.9952
same,AUC,"MCF7, Breast Cancer",0.7913
same,AUC,"MDAMB175VII, Breast Cancer",0.9996
same,AUC,"MDAMB231, Breast Cancer",0.8811
same,AUC,"MDAMB361, Breast Cancer",0.7401
same,AUC,"MDAMB436, Breast Cancer",1
same,AUC,"MDAMB453, Breast Cancer",0.5759
same,AUC,"MDAMB468, Breast Cancer",1
same,AUC,"MDST8, Colon/Colorectal Cancer",0.9162
same,AUC,"MELHO, Melanoma",0.7224
same,AUC,"MESSA, Uterine Sarcoma",0.7646
same,AUC,"MFE280, Endometrial/Uterine Cancer",0.8205
